Results: paper PMC10590056, “Design and synthesis of cabotegravir derivatives bearing 1,2,3-triazole and evaluation of anti-liver cancer activity” (Frontiers in Pharmacology, 2023)
Several values for one entry are separate records, joined by “and”; a condition that tells them apart may be missing. Identical values can stand only once.

Assays:
Assay type in all cases: cell-based
[1] = system: HeLa cells; assay: MTT assay for cell proliferation, HeLa; parameters: key to Inhibitory rate: inhibition rate = 1 - mean A490 sample/mean A490 control (fraction); settings: Hela; for Inhibitory rate / ODtreated/ODcontrol: fraction, per experiment; for Inhibition rate (16μM), 48 h, Hela: preliminary screening, mean±SD, unit not given
Description: (§1) HepG2, HeLa, MCF-7, and KYSE-30 cells were grown in a humidified incubator at 37°C with 5% CO2 in DMEM supplemented with 10% fetal bovine serum (FBS), […] streptomycin, and 100 U/mL penicillin.
(§2) When HepG2 cells reached 80% confluence, they were treated with 1 mL of trypsin and resuspended at a density of 10^5 cells/mL. Then, 100 μL of cell suspension was seeded into each well of a 96-well plate and incubated in a humidified atmosphere. The different concentrations of KJ-5 and KJ-12 (0, 1, 2, 4, 8, 16, and 32 μM) were added to each well, and the cells were further incubated for 48 h. Afterward, 20 μL of the MTT solution (5 mg/mL) was added to each well, and incubation was continued for another 4 h. The supernatant was discarded, and 200 μL of the DMSO solution was added to each well. The plate was shaken for 10 min in the dark. The absorbance values were measured at 490 nm using an enzyme-linked detector. The cell inhibition rate (%) was calculated using the following formula: (1-Mean A490 sample/Mean A490 control) × 100%.

[2] = system: KYSE-30 cells; assay: MTT assay for cell proliferation, KYSE-30; parameters: key to Inhibitory rate: inhibition rate = 1 - mean A490 sample/mean A490 control (fraction); settings: for Inhibitory rate: KYSE-30, given as fraction; for Inhibition rate (16μM), 48 h, KYSE-30: preliminary screening, KYSE-30, 16 μM, mean±SD, unit not given
Description: as §1, §2

[3] = system: HepG2 cells; assay: MTT assay for cell proliferation and cytotoxicity, HepG2; parameters: key to Inhibitory rate: inhibition rate = 1 - mean A490 sample/mean A490 control (fraction); settings: for IC50: HepG2, 48 h, MTT; for Inhibitory rate / ODtreated/ODcontrol: HepG2, fraction, per experiment; for Inhibition rate (16μM), 48 h, HepG2: preliminary screening, HepG2, 16 μM, mean±SD, unit not given
Description: as §1, §2

[4] = system: MCF-7 cells; assay: MTT assay for cell proliferation, MCF-7; parameters: key to Inhibitory rate / Inhibition rate: inhibition rate = 1 - mean A490 sample/mean A490 control (fraction); settings: for Inhibition rate (16μM), 48 h, MCF-7: preliminary screening, MCF-7, 16 μM, mean±SD, unit not given
Description: as §1, §2

[5] = KYSE-30, first of three experiments
[6] = KYSE-30, second of three experiments
[7] = KYSE-30, third of three experiments
[8] = MCF-7, fraction, per experiment
[9] = given as fraction, second of three experiments
[10] = given as fraction, third of three experiments

SMILES	Inhibitory rate [1]	ODtreated/ODcontrol [1]	Inhibition rate (16μM), 48 h, Hela [1]	ODtreated/ODcontrol [2, 5]	Inhibitory rate ([2]; first of three experiments)	Inhibitory rate ([2]; second of three experiments)	Inhibitory rate ([2]; third of three experiments)	ODtreated/ODcontrol [2, 6]	Inhibition rate (16μM), 48 h, KYSE-30 [2]	IC50 [3]	Inhibitory rate [3]	ODtreated/ODcontrol [3]	Inhibition rate (16μM), 48 h, HepG2 [3]	Inhibitory rate [4, 8]	ODtreated/ODcontrol [4, 8]	Inhibitory rate [4, 9]	Inhibition rate [4, 10]	Inhibition rate (16μM), 48 h, MCF-7 [4]	ODtreated/ODcontrol ([4]; second of three experiments)	ODtreated/ODcontrol ([4]; third of three experiments)	other results
COc1c2n(cc(C(=O)Nc3cccc(-c4cn(-c5ccc(C(F)(F)F)cc5)nn4)c3)c1=O)C[C@H]1OC[C@H](C)N1C2=O [KJ-10]	0.353 and 0.3445 and 0.3223	0.647 and 0.6555 and 0.6777	33.99±1.59	0.6507	0.3493	0.2142	0.2217	0.7858	26.17±7.59	> 50 µM	0.3299 and 0.3414 and 0.3063	0.6701 and 0.6586 and 0.6937	32.59±1.79	0.366	0.634	0.3141	0.2908	33.36±3.87	0.6859	0.7092	ODtreated/ODcontrol [2, 7]: 0.7783
COc1c2n(cc(C(=O)Nc3cccc(-c4cn(-c5cc(C(F)(F)F)ccc5C(F)(F)F)nn4)c3)c1=O)CC1OCC(C)N1C2=O (stereo not shown) [KJ-11]	0.2491 and 0.2184 and 0.2018	0.7509 and 0.7816 and 0.7982	22.31±2.4	0.7351	0.2649	0.225	0.2137	0.775	23.45±2.69	> 50 µM	0.2636 and 0.2471 and 0.2291	0.7364 and 0.7529 and 0.7709	24.66±1.73	0.1458	0.8542	0.193	0.2016	18.01±3.00	0.807	0.7984	ODtreated/ODcontrol [2, 7]: 0.7863
COc1c2n(cc(C(=O)Nc3cccc(-c4cn(-c5ccccc5Br)nn4)c3)c1=O)CC1OCC(C)N1C2=O (stereo not shown) [KJ-13]	0.1723 and 0.1977 and 0.2047	0.8277 and 0.8023 and 0.7953	19.16±1.71	0.7102	0.2898	0.2542	0.2107	0.7458	25.16±3.96	> 50 µM	0.2436 and 0.2489 and 0.2333	0.7564 and 0.7511 and 0.7667	24.19±0.79	0.2953	0.7047	0.2534	0.2193	25.6±3.81	0.7467	0.7807	ODtreated/ODcontrol [2, 7]: 0.7893
COc1c2n(cc(C(=O)Nc3cccc(-c4cn(-c5ccc(F)cc5)nn4)c3)c1=O)CC1OCC(C)N1C2=O (stereo not shown) [KJ-14]	0.494 and 0.5678 and 0.4688	0.506 and 0.4322 and 0.5312	51.02±5.15	0.5122	0.4878	0.5323		0.4677	52.98±4.08	9.94 ± 0.78 µM	0.5683 and 0.5455 and 0.5583	0.4317 and 0.4545 and 0.4417	55.74±1.15	0.4819	0.5181	0.5123	0.5403	51.15±2.92	0.4877	0.4597	
COc1c2n(cc(C(=O)Nc3cccc(-c4cn(-c5ccccc5I)nn4)c3)c1=O)CC1OCC(C)N1C2=O (stereo not shown) [KJ-15]	0.2424 and 0.3317 and 0.2684	0.7576 and 0.6683 and 0.7316	28.08±4.59	0.5987	0.4013	0.4302	0.3963	0.5698	40.93±1.83	41.8 ± 1.22 µM	0.3617 and 0.3472 and 0.3578	0.6383 and 0.6528 and 0.6422	35.56±0.75	0.3627	0.6373	0.3633	0.3314	35.25±1.83	0.6367	0.6686	ODtreated/ODcontrol [2, 7]: 0.6037
COc1c2n(cc(C(=O)Nc3cccc(-c4cn(-c5ccccc5)nn4)c3)c1=O)CC1OCC(C)N1C2=O (stereo not shown) [KJ-16]	0.3434 and 0.3651 and 0.3539	0.6566 and 0.6349 and 0.6461	35.41±1.09	0.634	0.366	0.4151	0.4118	0.5849	39.76±2.74	28.82 ± 0.1 µM	0.4156 and 0.4284 and 0.3769	0.5844 and 0.5716 and 0.6231	40.70±2.68	0.4071	0.5929	0.3917	0.4369	41.19±2.3	0.6083	0.5631	ODtreated/ODcontrol [2, 7]: 0.5882
COc1c2n(cc(C(=O)Nc3cccc(-c4cn(-c5cccc(Cl)c5)nn4)c3)c1=O)CC1OCC(C)N1C2=O (stereo not shown) [KJ-17]	0.5384 and 0.6161 and 0.6258	0.4616 and 0.3839 and 0.3742	59.34±4.79	0.4828	0.5172	0.6074	0.5319	0.3926	55.22±4.84	9.83 ± 0.85 µM	0.6231 and 0.6364 and 0.626	0.3769 and 0.3636 and 0.374	62.85±0.70	0.5766	0.4234	0.4958	0.6004	55.76±5.48	0.5042	0.3996	ODtreated/ODcontrol [2, 7]: 0.4681
COc1c2n(cc(C(=O)Nc3cccc(-c4cn(-c5cccc(Br)c5)nn4)c3)c1=O)CC1OCC(C)N1C2=O (stereo not shown) [KJ-18]	0.6347 and 0.6562 and 0.6485	0.3653 and 0.3438 and 0.3515	64.65±1.09	0.385	0.615	0.5247	0.5847	0.4753	57.48±4.60	6.57 ± 1.45 µM	0.7113 and 0.6793 and 0.7366	0.2887 and 0.3207 and 0.2634	70.90±2.87	0.5861	0.4139	0.5487	0.6055	58.01±2.89	0.4513	0.3945	ODtreated/ODcontrol [2, 7]: 0.4153
COc1c2n(cc(C(=O)Nc3cccc(-c4cn(-c5ccccc5Cl)nn4)c3)c1=O)CC1OCC(C)N1C2=O (stereo not shown) [KJ-19]	0.6257 and 0.6335 and 0.6346	0.3743 and 0.3665 and 0.3654	63.13±0.49	0.43	0.57	0.5211	0.5717	0.4789	55.43±2.87	7.5 ± 1.19 µM	0.7209 and 0.735 and 0.7422	0.2791 and 0.265 and 0.2578	73.27±1.09	0.5839	0.4161	0.531	0.6163	57.71±4.31	0.469	0.3837	ODtreated/ODcontrol [2, 7]: 0.4283
